Each structure is given as a SMILES string. pEC50, pIC50: −log10 of the molar value. Activity calls are given as the source filed them. The rule behind the calls is not given here.

Data set [1] can be described thus: (§1) Inhibition of Oropouche virus N-terminal His-tagged fusion endonuclease expressed in Escherichia coli Rosetta (DE3) cells using FAM-TCT CTA GCA GTG GCG CC-TAM as DNA substrate measured every 60 secs for 60 mins by fluorescence based analysis.
Data set [2] can be described thus: Cytotoxicity against African green monkey Vero cells assessed as reduction in cell viability measured after 72 hrs by MTT assay. In kind it is toxicity, cell-based. To be noted: chlorocebus sabaeus. (Tetrazolium dyes change colour on reduction, which living cells bring about.)
Data set [3] deals with Oropouche virus. Kind of data set: Antiviral activity against Oropouche virus infected in Vero cells incubated for 1 hr and measured after 3 days by crystal violet staining based analysis. In kind it is functional, organism-based.
Data set [4] in a line: Selectivity index, ratio of CC50 for African green monkey Vero cells to EC50 for Oropouche virus infected in Vero cells. Type of data set: toxicity, cell-based. To be noted: read-out: Ratio CC50/EC50.
Data set [5] relates to Oropouche virus. The data set is described as §1.
A short description of data set [6]: Inhibition of Oropouche virus N-terminal His-tagged fusion endonuclease expressed in Escherichia coli Rosetta (DE3) cells using FAM-TCT CTA GCA GTG GCG CC-TAM as DNA substrate measured every 60 secs for 60 mins by FRET assay.

For the compound `COc1cc2[nH]c3c(OC)c(OC)ccc3c(=O)c2c(OC)c1OC` [CUSCULINE], in data set [1], the pIC50 was 5.85. Further, the CC50 at 72 h in data set [2] was determined as 1640 µM. Also, the pEC50 in the data set on Oropouche virus [3] is 4.48. Further, the selectivity ratio in data set [4] is 49.6.

Regarding `Oc1cc(O)c2c(O)c3cc4ccccc4cc3nc2c1`, in the data set with Oropouche virus [5], the inhibition result is “inactive”. The CC50 at 72 h in data set [2] was determined as 1530 µM. The compound further showed a pEC50 with Oropouche virus [3] of 4.67. The selectivity ratio in data set [4] is 70.8.

For `COc1cc(O)c2c(c1)oc(=O)c1c3cc(O)c(O)cc3oc21` [WEDELOLACTONE], the CC50 at 72 h in data set [2] stood at 374 µM. In the data set with Oropouche virus [3], this compound gave a pEC50 of 4.72. The negative-log IC50 (pIC50) in data set [6] is 6.51.

As usually defined, the pIC50 is −log10 of the IC50, conventionally taken in molar units. The CC50 is the concentration at which the toxic effect on the cells reaches its halfway point. The term pEC50 denotes the negative decadic logarithm of the EC50, by convention in mol/L.

Source of the values: ChEMBL document CHEMBL5576080, “Oropouche virus - The "Newest" invisible public enemy?” (Bioorg Med Chem, 2024).
